Test results reported in patent US20080009418A1, “Selective Inhibitors” (Alchemia LTD., priority 2004, published 2008).

What was measured:
[1] = target: T1, Human neuropeptide Y (NPY-Y1) (Homo sapiens, UniProt P25929); assay: Radioligand binding, human neuropeptide Y NPY-Y1 membranes, FlashPlate, [125I]-PYY; details: compound at 10 μM, [125I]-PYY
T1 construct: purchased Perkin Elmer Biosignal
T1 sequence (P25929 1-384): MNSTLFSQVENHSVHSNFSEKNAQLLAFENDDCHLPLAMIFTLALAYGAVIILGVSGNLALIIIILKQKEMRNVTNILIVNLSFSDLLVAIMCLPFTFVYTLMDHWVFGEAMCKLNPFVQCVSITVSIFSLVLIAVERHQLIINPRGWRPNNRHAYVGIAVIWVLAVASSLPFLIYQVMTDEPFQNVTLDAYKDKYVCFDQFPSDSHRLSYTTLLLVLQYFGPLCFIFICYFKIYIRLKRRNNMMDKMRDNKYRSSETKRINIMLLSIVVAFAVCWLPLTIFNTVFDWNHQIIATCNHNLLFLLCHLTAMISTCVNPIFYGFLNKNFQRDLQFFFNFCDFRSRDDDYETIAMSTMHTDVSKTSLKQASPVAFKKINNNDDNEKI
How it was run: (§1)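 Cloned human receptor membranes were coated onto FlashPlate wells and incubated with radioligand and compound (added from a 0.5 mM DMSO daughter plate) for 1 hour at room temperature in the dark. Scintillation counting gave percent inhibition, with DMSO defining total and reference ligand defining non-specific binding.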

Mouse urotensin (mUR2) = target: T2, Mouse urotensin (mUR2) (Mus musculus, UniProt Q8VIH9); assay: Radioligand binding, mouse urotensin mUR2 membranes, FlashPlate, [125I]-Urotensin II; details: compound at 10 μM, [125I]-Urotensin II
T2 construct: purchased Perkin Elmer Biosignal
T2 sequence (Q8VIH9 1-385): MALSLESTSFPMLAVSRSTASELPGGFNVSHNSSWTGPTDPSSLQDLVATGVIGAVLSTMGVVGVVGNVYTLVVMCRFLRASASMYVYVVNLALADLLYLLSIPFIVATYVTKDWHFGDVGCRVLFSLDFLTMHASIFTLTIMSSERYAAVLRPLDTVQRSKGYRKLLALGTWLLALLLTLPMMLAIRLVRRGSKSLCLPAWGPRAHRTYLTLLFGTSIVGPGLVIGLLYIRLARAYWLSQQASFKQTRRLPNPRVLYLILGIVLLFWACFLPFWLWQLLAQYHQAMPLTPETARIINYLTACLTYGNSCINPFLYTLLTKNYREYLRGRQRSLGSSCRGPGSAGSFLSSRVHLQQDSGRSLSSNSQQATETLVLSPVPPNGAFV
How it was run: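 Cloned mouse urotensin (mUR2) receptor membranes from Perkin Elmer Biosignal were immobilized in FlashPlate microplates using a proprietary coating. Each well got 19.5 μl buffer, then 0.5 μl of DMSO, reference ligand, or compound. Adding 5 μl of [125I]-Urotensin II, diluted to 5× final concentration in binding buffer, started binding. Plates were sealed with TopSeal-A and incubated 1 hour at room temperature in the dark. Wells were counted for 30 seconds each on a TopCount after a 60-second delay, and percentage inhibition was calculated.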

Human Melanocortin (MC4) = target: T3, Human Melanocortin (MC4) (Homo sapiens, UniProt P32245); assay: Radioligand binding, human melanocortin MC4 membranes, FlashPlate, [125I]-NDP-αMSH; details: compound at 10 μM, [125I]-NDP-αMSH
T3 construct: purchased Perkin Elmer Biosignal
T3 sequence (P32245 whole entry): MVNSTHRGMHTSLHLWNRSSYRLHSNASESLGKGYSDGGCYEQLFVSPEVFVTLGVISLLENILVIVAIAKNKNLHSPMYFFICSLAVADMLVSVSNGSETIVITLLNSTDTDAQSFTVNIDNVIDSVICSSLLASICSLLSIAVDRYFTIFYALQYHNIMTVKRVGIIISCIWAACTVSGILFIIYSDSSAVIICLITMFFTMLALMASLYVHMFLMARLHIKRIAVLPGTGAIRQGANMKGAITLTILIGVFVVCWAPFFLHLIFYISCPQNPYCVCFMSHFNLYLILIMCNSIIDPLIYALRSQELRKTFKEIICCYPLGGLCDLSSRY
How it was run: as §1

Human Melanocortin (MC3) = target: T4, Human Melanocortin (MC3) (Homo sapiens, UniProt P41968); assay: Radioligand binding, human melanocortin MC3 membranes, FlashPlate, [125I]-NDP-αMSH; details: compound at 10 μM, [125I]-NDP-αMSH
T4 construct: purchased Perkin Elmer Biosignal
T4 sequence (P41968 whole entry): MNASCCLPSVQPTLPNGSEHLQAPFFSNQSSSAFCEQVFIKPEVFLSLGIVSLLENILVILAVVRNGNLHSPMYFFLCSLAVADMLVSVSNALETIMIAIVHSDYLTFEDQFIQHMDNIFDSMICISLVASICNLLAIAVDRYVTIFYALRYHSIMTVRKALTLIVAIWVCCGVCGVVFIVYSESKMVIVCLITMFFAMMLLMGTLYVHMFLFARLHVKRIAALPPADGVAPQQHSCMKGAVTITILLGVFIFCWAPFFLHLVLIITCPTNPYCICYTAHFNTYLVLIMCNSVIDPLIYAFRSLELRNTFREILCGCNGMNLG
How it was run: as §1

[2] = target: T5, Human melanin-concentrating hormone (MCH1) (Homo sapiens, UniProt Q99705); assay: Radioligand binding, human melanin-concentrating hormone MCH1 membranes, FlashPlate, [125I]-S36057; details: compound at 10 μM
T5 construct: purchased Perkin Elmer Biosignal
T5 sequence (Q99705 whole entry): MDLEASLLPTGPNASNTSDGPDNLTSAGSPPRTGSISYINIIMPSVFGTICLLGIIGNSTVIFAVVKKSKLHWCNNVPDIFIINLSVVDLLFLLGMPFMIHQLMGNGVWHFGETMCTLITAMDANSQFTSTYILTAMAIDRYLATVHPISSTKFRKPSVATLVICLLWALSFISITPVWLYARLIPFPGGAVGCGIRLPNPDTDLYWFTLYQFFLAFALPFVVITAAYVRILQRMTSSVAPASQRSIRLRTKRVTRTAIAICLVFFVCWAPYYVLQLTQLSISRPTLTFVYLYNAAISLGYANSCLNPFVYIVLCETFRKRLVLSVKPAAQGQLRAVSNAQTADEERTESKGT
How it was run: as §1

Human neurokinin (NK1) = target: T6, Human neurokinin (NK1) (Homo sapiens, UniProt P25103); assay: Radioligand binding, human neurokinin NK1 membranes, filtration, [125I]-Substance P; details: compound at 10 μM, [125I]-Substance P
T6 construct: purchased Perkin Elmer Biosignal
T6 sequence (P25103 whole entry): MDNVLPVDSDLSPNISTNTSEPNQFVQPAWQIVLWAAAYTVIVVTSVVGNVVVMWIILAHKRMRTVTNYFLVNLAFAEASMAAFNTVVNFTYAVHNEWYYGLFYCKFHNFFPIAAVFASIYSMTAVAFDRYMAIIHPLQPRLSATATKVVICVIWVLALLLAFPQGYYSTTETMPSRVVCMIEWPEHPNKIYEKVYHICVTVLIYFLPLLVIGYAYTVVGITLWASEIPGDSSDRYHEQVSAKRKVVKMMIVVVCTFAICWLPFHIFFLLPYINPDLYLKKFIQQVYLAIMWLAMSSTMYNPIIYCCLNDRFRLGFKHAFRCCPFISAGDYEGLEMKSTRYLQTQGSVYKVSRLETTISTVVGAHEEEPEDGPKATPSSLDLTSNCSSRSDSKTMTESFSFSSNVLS
How it was run: (§2)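 Membranes from cloned human receptors were incubated with compound and radioligand for 1 hour at room temperature. Bound ligand was collected on 0.3% PEI-soaked filters, washed with cold 50 mM Tris-HCl pH 7.4, and counted by scintillation. Percent inhibition was computed against DMSO totals and reference-ligand nonspecific wells.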

Human κ-Opioid (KOP) = target: T7, Human κ-Opioid (KOP) (Homo sapiens, UniProt P41145); assay: Radioligand binding, human κ-opioid (KOP) membranes, filtration, [3H]-Diprenorphine; details: compound at 10 μM, [3H]-Diprenorphine
T7 construct: purchased Perkin Elmer Biosignal
T7 sequence (P41145 whole entry): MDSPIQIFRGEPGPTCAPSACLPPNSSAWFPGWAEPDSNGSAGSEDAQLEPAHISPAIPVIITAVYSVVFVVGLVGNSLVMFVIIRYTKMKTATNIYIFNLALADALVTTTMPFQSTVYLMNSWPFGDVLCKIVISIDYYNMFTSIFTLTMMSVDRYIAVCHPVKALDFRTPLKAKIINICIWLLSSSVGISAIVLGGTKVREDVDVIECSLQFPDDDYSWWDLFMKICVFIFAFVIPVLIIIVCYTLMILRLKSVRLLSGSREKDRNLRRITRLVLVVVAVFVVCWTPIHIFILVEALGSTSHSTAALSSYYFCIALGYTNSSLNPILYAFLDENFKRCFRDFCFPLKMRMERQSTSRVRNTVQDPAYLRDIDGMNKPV
How it was run: as §2

Human opioid (ORL1) = target: T8, Human opioid (ORL1) (Homo sapiens, UniProt P41146); assay: Radioligand binding, human opioid ORL1 membranes, FlashPlate, [125I]-Nociceptin; details: compound at 10 μM, [125I]-Nociceptin
T8 construct: purchased Perkin Elmer Biosignal
T8 sequence (P41146 whole entry): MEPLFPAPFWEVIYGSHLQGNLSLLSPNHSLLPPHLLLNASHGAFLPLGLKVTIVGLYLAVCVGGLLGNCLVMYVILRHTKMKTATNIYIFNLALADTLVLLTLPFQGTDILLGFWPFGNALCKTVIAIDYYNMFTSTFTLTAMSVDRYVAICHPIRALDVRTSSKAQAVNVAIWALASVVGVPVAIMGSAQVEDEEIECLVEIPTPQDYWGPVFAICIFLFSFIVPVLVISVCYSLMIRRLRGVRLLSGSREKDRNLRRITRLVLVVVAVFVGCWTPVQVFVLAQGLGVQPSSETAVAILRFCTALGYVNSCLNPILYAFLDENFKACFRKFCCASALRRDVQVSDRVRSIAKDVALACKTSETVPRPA
How it was run: as §1

Human melanocortin (MC5) = target: T9, Human melanocortin (MC5) (Homo sapiens, UniProt P33032); assay: Radioligand binding, human melanocortin MC5 membranes, FlashPlate, [125I]-NDP-αMSH; details: compound at 10 μM, [125I]-NDP-αMSH
T9 construct: purchased Perkin Elmer Biosignal
T9 sequence (P33032 whole entry): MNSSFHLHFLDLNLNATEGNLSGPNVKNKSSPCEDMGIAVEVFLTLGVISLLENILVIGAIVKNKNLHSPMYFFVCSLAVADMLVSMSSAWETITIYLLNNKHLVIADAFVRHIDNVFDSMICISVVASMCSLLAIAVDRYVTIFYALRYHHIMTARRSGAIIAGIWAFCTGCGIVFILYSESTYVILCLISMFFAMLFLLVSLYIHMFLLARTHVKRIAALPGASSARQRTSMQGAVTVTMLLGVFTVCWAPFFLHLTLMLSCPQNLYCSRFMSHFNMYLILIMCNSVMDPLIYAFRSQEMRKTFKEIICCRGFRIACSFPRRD
How it was run: as §1

Human μ-opioid (MOP) = target: T10, Human μ-opioid (MOP) (Homo sapiens, UniProt P35372); assay: Radioligand binding, human μ-opioid (MOP) membranes, FlashPlate, [3H]-Naloxone; details: compound at 10 μM, [3H]-Naloxone
T10 construct: purchased Perkin Elmer Biosignal
T10 sequence (P35372 whole entry): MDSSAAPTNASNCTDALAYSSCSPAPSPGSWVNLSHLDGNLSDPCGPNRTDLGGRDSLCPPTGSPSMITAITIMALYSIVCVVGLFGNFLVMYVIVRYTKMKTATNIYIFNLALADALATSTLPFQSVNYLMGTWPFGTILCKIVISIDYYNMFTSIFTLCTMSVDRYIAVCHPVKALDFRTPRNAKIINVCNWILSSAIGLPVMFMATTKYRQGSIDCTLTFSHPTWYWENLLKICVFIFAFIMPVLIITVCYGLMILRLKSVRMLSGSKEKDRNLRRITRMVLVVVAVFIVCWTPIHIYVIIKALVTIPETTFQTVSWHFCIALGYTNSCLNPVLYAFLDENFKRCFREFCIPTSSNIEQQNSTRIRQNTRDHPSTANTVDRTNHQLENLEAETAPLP
How it was run: as §1

Human δ-opioid (DOP) = target: T11, Human δ-opioid (DOP) (Homo sapiens, UniProt P41143); assay: Radioligand binding, human δ-opioid (DOP) membranes, FlashPlate, [3H]-Bremazocine; details: compound at 10 μM, [3H]-Bremazocine
T11 construct: purchased Perkin Elmer Biosignal
T11 sequence (P41143 whole entry): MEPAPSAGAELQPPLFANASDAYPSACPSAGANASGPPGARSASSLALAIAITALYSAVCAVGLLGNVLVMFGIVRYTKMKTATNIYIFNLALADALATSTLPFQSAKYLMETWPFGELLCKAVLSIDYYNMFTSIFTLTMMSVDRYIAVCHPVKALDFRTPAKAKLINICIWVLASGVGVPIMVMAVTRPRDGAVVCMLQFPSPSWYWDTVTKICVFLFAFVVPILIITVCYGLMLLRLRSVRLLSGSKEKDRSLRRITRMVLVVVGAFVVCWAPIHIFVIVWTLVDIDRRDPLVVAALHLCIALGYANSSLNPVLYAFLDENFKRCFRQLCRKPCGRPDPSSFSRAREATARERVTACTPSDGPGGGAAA
How it was run: as §1

SMILES	A9: inhibition of radioligand binding ([1]; FlashPlate)	A11: inhibition of radioligand binding (Mouse urotensin (mUR2); FlashPlate)	A4: inhibition of radioligand binding (Human Melanocortin (MC4); FlashPlate)	A3: inhibition of radioligand binding (Human Melanocortin (MC3); FlashPlate)	A6: inhibition of radioligand binding ([2]; [125I]-S36057, FlashPlate)	A8: inhibition of radioligand binding (Human neurokinin (NK1); filtration)	A2: inhibition of radioligand binding (Human κ-Opioid (KOP); filtration)	A10: inhibition of radioligand binding (Human opioid (ORL1); FlashPlate)	A5: inhibition of radioligand binding (Human melanocortin (MC5); FlashPlate)	A7: inhibition of radioligand binding (Human μ-opioid (MOP); FlashPlate)	A1: inhibition of radioligand binding (Human δ-opioid (DOP); FlashPlate)	further results
COCC1OC(OCCc2ccccc2)C(NC(=O)CN)C(OCc2ccc(-c3ccccc3)cc2)C1O (stereo not shown) [compound 224]	− (“−” indicates less than 50% inhibition at 10 μM)	− (“−” indicates less than 50% inhibition at 10 μM)	− (“−” indicates less than 50% inhibition at 10 μM)	− (“−” indicates less than 50% inhibition at 10 μM)	− (“−” indicates less than 50% inhibition at 10 μM)	+ (“+” indicates greater than 50% inhibition at 10 μM)	− (“−” indicates less than 50% inhibition at 10 μM)	− (“−” indicates less than 50% inhibition at 10 μM)	− (“−” indicates less than 50% inhibition at 10 μM)	− (“−” indicates less than 50% inhibition at 10 μM)	− (“−” indicates less than 50% inhibition at 10 μM)	–
CSC1O[C@H](COCc2ccc(-c3ccccc3)cc2)[C@@H](O)[C@@H](OCc2ccc(Cl)cc2)[C@H]1NC(=O)CCNC(=N)N (stereo partly shown) [compound 277]	− (“−” indicates less than 50% inhibition at 10 μM)	− (“−” indicates less than 50% inhibition at 10 μM)	− (“−” indicates less than 50% inhibition at 10 μM)	+ (“+” indicates greater than 50% inhibition at 10 μM)	− (“−” indicates less than 50% inhibition at 10 μM)	+ (“+” indicates greater than 50% inhibition at 10 μM)	− (“−” indicates less than 50% inhibition at 10 μM)	− (“−” indicates less than 50% inhibition at 10 μM)	− (“−” indicates less than 50% inhibition at 10 μM)	− (“−” indicates less than 50% inhibition at 10 μM)	− (“−” indicates less than 50% inhibition at 10 μM)	–
CSC1O[C@H](COCc2ccc(Cl)cc2)[C@@H](O)[C@@H](OCc2ccc(-c3ccccc3)cc2)[C@H]1NC(=O)CN (stereo partly shown) [compound 288]	–	–	–	–	–	–	–	–	–	–	–	A9: inhibition of radioligand binding, human neuropeptide Y (NPY-Y1) [1]: − (“−” indicates less than 50% inhibition at 10 μM); A11: inhibition of radioligand binding, mouse urotensin (mUR2) (Mouse urotensin (mUR2)): − (“−” indicates less than 50% inhibition at 10 μM); A4: inhibition of radioligand binding, human melanocortin (MC4) (Human Melanocortin (MC4)): − (“−” indicates less than 50% inhibition at 10 μM); A3: inhibition of radioligand binding, human melanocortin (MC3) (Human Melanocortin (MC3)): − (“−” indicates less than 50% inhibition at 10 μM); A6: inhibition of radioligand binding, human melanin-concentrating hormone (MCH1) ([2]; [125I]-S36057): − (“−” indicates less than 50% inhibition at 10 μM); A8: inhibition of radioligand binding, human neurokinin (NK1) (Human neurokinin (NK1)): + (“+” indicates greater than 50% inhibition at 10 μM); A2: inhibition of radioligand binding, human κ-opioid (KOP) (Human κ-Opioid (KOP)): − (“−” indicates less than 50% inhibition at 10 μM); A10: inhibition of radioligand binding, human opioid (ORL1) (Human opioid (ORL1)): − (“−” indicates less than 50% inhibition at 10 μM); A5: inhibition of radioligand binding, human melanocortin (MC5) (Human melanocortin (MC5)): − (“−” indicates less than 50% inhibition at 10 μM); A7: inhibition of radioligand binding, human μ-opioid (MOP) (Human μ-opioid (MOP)): − (“−” indicates less than 50% inhibition at 10 μM); A1: inhibition of radioligand binding, human δ-opioid (DOP) (Human δ-opioid (DOP)): − (“−” indicates less than 50% inhibition at 10 μM)
NCCCC(=O)NC1C(OCc2ccc3ccccc3c2)OC(COCc2ccc(Cl)cc2)C(O)C1OCc1ccccc1 (stereo not shown) [compound 398]	–	–	–	–	–	–	–	–	–	–	–	A9: inhibition of radioligand binding ([1]; human NPY-Y1 membranes): − (“−” indicates less than 50% inhibition at 10 μM); A11: inhibition of radioligand binding (Mouse urotensin (mUR2); mouse mUR2 membranes): − (“−” indicates less than 50% inhibition at 10 μM); A4: inhibition of radioligand binding (Human Melanocortin (MC4); human MC4 membranes, 10 µM): + (“+” indicates greater than 50% inhibition at 10 μM); A3: inhibition of radioligand binding (Human Melanocortin (MC3); human MC3 membranes, 10 µM): + (“+” indicates greater than 50% inhibition at 10 μM); A6: inhibition of radioligand binding ([2]; [125I]-S36057, human MCH1 membranes): − (“−” indicates less than 50% inhibition at 10 μM); A8: inhibition of radioligand binding (Human neurokinin (NK1); human NK1 membranes): + (“+” indicates greater than 50% inhibition at 10 μM); A2: inhibition of radioligand binding (Human κ-Opioid (KOP); human KOP membranes): − (“−” indicates less than 50% inhibition at 10 μM); A10: inhibition of radioligand binding (Human opioid (ORL1); human ORL1 membranes, 10 µM): − (“−” indicates less than 50% inhibition at 10 μM); A5: inhibition of radioligand binding (Human melanocortin (MC5); human MC5 membranes): + (“+” indicates greater than 50% inhibition at 10 μM); A7: inhibition of radioligand binding (Human μ-opioid (MOP); human MOP membranes): − (“−” indicates less than 50% inhibition at 10 μM); A1: inhibition of radioligand binding (Human δ-opioid (DOP); human DOP membranes): − (“−” indicates less than 50% inhibition at 10 μM)
CSC1OC(COCc2ccc(-c3ccccc3)cc2)C(O)C(OCc2ccccc2)C1NC(=O)CCN (stereo not shown) [compound 256]	− (“−” indicates less than 50% inhibition at 10 μM)	− (“−” indicates less than 50% inhibition at 10 μM)	− (“−” indicates less than 50% inhibition at 10 μM)	− (“−” indicates less than 50% inhibition at 10 μM)	− (“−” indicates less than 50% inhibition at 10 μM)	+ (“+” indicates greater than 50% inhibition at 10 μM)	− (“−” indicates less than 50% inhibition at 10 μM)	− (“−” indicates less than 50% inhibition at 10 μM)	− (“−” indicates less than 50% inhibition at 10 μM)	− (“−” indicates less than 50% inhibition at 10 μM)	− (“−” indicates less than 50% inhibition at 10 μM)	–
